According to patent US9005667B1, “Treating leukemia with a whole, leech saliva extract” (priority 2012, dated 2015):

Experiments:
[1] = system: Candida albicans ATCC10231; test: Kirby-Bauer disc diffusion; assay type: cell-based; conditions: reference antibiotic disc (100unit)
Text: (§1) Experimental procedures include the following steps: • 1.

[2] = system: Cryptococcus neoformans ATCC90112; test: Kirby-Bauer disc diffusion; assay type: cell-based; conditions: reference antibiotic disc (100unit)
Text: as §1

[3] = system: alloxan induced-diabetic rats; test: Antihyperglycemic activity: fall in fasting blood glucose in alloxan induced-diabetic rats; assay type: in vivo, rat
Salmonella typhi = test: Kirby-Bauer disc diffusion; assay type: cell-based; conditions: reference antibiotic disc (5 μg)

C[C@@H]1[C@H](O)[C@@H](C)/C=C/C=C/CC/C=C/C=C/C=C/C=C/C(O[C@H]2O[C@H](C)[C@@H](O)[C@H](N)[C@@H]2O)CC2O[C@](O)(CC(O)C(O)CCC(O)CC(O)CC(O)CC(=O)O[C@H]1C)CC(O)C2C(=O)O (stereo partly drawn) [Nystatin, nystatin]
Zone of inhibition, C. albicans [1]: 10 mm
Zone of inhibition, C. neoformance [2]: 9 mm

insulin: insulin from bovine pancreas (≧27 units/mg)
FBG ([3]; all insulin-injected rats, after two hours of injection (p<0.001)): sharp significant decrease
FBG difference between normal rats and treated diabetic rats ([3]; at either dose): No significant difference
FBG ([3]; insulin 10 units/kg b.w, after 8 hours of treatment): returned to the diabetic state

O=C(O)c1cn(C2CC2)c2cc(N3CCNCC3)c(F)cc2c1=O [Cipro, ciprofloxacin]
Zone of inhibition, Sal. typhi (Salmonella typhi): 35 mm
